Data on four compounds can be found in publication PMC9394284, “Discovery of Novel Dual Adenosine A2A and A1 Receptor Antagonists with 1H-Pyrazolo[3,4-d]pyrimidin-6-amine Core Scaffold as Anti-Parkinson’s Disease Agents” (Pharmaceuticals, 2022).

For series [1], the target named is T1, hA2A receptors (Homo sapiens, UniProt P29274).
T1 construct: purchased PerkinElmer RBHA2AM
Put plainly: radioligand binding to human A2A receptors, HEK-293 membranes. To be noted: average of duplicate experiments. The procedure: The binding affinities of synthesized compounds to human A2A receptors (hA2AR) were measured by assessing competitive binding of ligands to radioligand […] using membrane preparations of human recombinant HEK-293 cells expressing human A2A receptors.
The radioligand-binding assays for adenosine receptors were performed at Eurofins Discovery Services (Panlabs, Taiwan). Briefly, stock solutions of the compounds were prepared in DMSO and further diluted with the incubation buffer to the desired concentration. Final DMSO concentrations in the assay were 1.0%. […] Nonspecific binding was estimated in the presence of 100 μM R(-)-PIA. Membranes were filtered and washed 3 times and the filters were counted to determine specifically bound [^3H]DPCPX. Chemical compounds were screened at 10 μM. […] Nonspecific binding was estimated in the presence of 50.0 μM NECA. […] Nonspecific binding was estimated in the presence of 100 μM NECA. Membranes were filtered and washed 3 times and the filters were counted to determine [^3H]MRS1754 specifically bound. […] Nonspecific binding was estimated in the presence of 1.0 μM IB-MECA.
IC50 values were determined by a nonlinear, least-squares regression analysis using MathIQ^TM (ID Business Solutions Ltd., Guildford, UK). […] The Hill coefficient (nH), which defines the slope of the competitive binding curve, was calculated using MathIQ^TM.

In series [2] the target is T2, hA1 receptor (Homo sapiens, UniProt P30542).
T2 sequence (P30542 1-326): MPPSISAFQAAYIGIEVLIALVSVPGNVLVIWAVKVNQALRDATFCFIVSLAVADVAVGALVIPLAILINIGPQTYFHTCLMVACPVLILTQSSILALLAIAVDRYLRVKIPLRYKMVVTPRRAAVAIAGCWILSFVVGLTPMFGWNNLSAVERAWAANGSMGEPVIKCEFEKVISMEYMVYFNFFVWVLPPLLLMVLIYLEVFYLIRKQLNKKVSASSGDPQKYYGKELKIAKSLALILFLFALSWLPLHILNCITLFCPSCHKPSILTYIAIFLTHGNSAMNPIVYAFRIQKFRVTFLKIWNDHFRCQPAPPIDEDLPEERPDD
Put plainly: radioligand binding to human A1 receptors, CHO-K1 membranes, [3H]DPCPX. To be noted: average of duplicate experiments. The procedure: The radioligand-binding assays for adenosine receptors were performed at Eurofins Discovery Services (Panlabs, Taiwan). Briefly, stock solutions of the compounds were prepared in DMSO and further diluted with the incubation buffer to the desired concentration. Final DMSO concentrations in the assay were 1.0%. For adenosine A1 screening, a 10 μg aliquots of membrane preparations from human recombinant CHO-K1 cells stably expressing A1 receptors (CHO-K1-hA1AR clone3, EPDST, R200510) were incubated with 1 nM [^3H]DPCPX in incubation buffer (20 mM HEPES, pH 7.4, 10 mM MgCl2, 100 mM NaCl 1.40 nM) for 90 min at 25 °C. Nonspecific binding was estimated in the presence of 100 μM R(-)-PIA. Membranes were filtered and washed 3 times and the filters were counted to determine specifically bound [^3H]DPCPX. Chemical compounds were screened at 10 μM. For A2A screening, membrane preparations from human recombinant HEK-293 cells stably expressing A2A receptors (PerkinElmer, RBHA2AM) were incubated with 0.05 μM [^3H]CGS-21680 in incubation buffer (50 mM Tris-HCl, pH 7.4, 10 mM MgCl2, 1 mM EDTA, 2 U/mL Adenosine Deaminase) for 90 min at 25 °C. Nonspecific binding was estimated in the presence of 50.0 μM NECA. Membranes were filtered and washed 3 times and the filters were counted to determine [^3H]CGS-21680 specifically bound. For A2B screening, membrane preparations from human recombinant HEK-293 cells stably expressing A2B receptors (PerkinElmer, ES-013-M) were incubated with 1.6 nM [^3H]MRS1754 in incubation buffer (50 mM Tris-HCl, pH 6.5, 5 mM MgCl2, 1 mM EDTA, 0.01 % Bacitracin) for 90 min at 25 °C. Nonspecific binding was estimated in the presence of 100 μM NECA. Membranes were filtered and washed 3 times and the filters were counted to determine [^3H]MRS1754 specifically bound. For A3 screening, membrane preparations from human recombinant CHO-K1 cells stably expressing A3 receptors (PerkinElmer, ES-012-M) were incubated with 0.5 nM [^125I]AB-MECA in incubation buffer (25 mM HEPES, pH 7.4, 5 mM MgCl2, 1 mM CaCl2, 0.1 % BSA) for 60 min at 25 °C. Nonspecific binding was estimated in the presence of 1.0 μM IB-MECA.
IC50 values were determined by a nonlinear, least-squares regression analysis using MathIQ^TM (ID Business Solutions Ltd., Guildford, UK). Where inhibition constants (Ki) were presented, the Ki values were calculated using Cheng and Prusoff equation [18] using the observed IC50 of the compound, the concentration of radioligand employed in the assay, and the historical values for the KD of the ligand (obtained experimentally at Eurofins Panlabs, Inc.). The Hill coefficient (nH), which defines the slope of the competitive binding curve, was calculated using MathIQ^TM.

A short description of series [3]: solubility (qualitative). It is filed as physicochemical. To be noted: CF3 next to aniline, difficulties in forming salt.
Series [4] in a line: metabolic stability in cryopreserved dog hepatocytes. The protocol: (§1) Metabolic stability of 11o was determined in cryopreserved hepatocytes from mice, rats, dogs, monkeys and human according to the SOPs of Frontage Laboratories Inc. Briefly, cryopreserved hepatocytes for pre-clinical animals and for human (BioIVT, Westbury, NY, USA) were thawed in a 37 °C water bath with gentle shaking until ice had almost melted. The suspensions were immediately transferred to a centrifuge tube (50 mL) containing pre-warmed thawing media at 37 °C with gentle handshaking to prevent the cells from settling. Cell suspensions were centrifuged at 50× g and 4 °C for 5 min. The supernatant was discarded and the pellets were resuspended in prewarmed incubation media (5 mL) at 37 °C. The percentage of viable cells in the suspension was determined by Trypan blue staining method to ensure viability of ≥70 %. […] The samples were centrifuged and aliquots of the supernatant were analyzed for parent compounds by LC/MS/MS using suitable multiple reaction monitoring (MRM) transitions. […] The disappearance of 11o and midazolam was monitored by LC/MS/MS (MRM) analysis of the hepatocyte extracts at each time point. The peak area ratio of the analyte to internal standard was obtained for each sample and the rate of disappearance of 11o was assessed by comparing the peak area ratios at various time points to the peak area ratio obtained at t = 0. The t1/2 is obtained (using the linear portion of semi-log plot of the area ratio vs. time) and the CLint values determined using well-stirred model.

Series [5] can be described thus: metabolic stability in cryopreserved monkey hepatocytes. The protocol:
as §1

The nature of series [6]: metabolic stability in cryopreserved mouse hepatocytes. The procedure:
as §1

Series [7] in a line: metabolic stability in cryopreserved human hepatocytes. The procedure: as §1
Series [8] can be described thus: metabolic stability in cryopreserved rat hepatocytes. The procedure: as §1

T1 sequence (P29274 whole entry): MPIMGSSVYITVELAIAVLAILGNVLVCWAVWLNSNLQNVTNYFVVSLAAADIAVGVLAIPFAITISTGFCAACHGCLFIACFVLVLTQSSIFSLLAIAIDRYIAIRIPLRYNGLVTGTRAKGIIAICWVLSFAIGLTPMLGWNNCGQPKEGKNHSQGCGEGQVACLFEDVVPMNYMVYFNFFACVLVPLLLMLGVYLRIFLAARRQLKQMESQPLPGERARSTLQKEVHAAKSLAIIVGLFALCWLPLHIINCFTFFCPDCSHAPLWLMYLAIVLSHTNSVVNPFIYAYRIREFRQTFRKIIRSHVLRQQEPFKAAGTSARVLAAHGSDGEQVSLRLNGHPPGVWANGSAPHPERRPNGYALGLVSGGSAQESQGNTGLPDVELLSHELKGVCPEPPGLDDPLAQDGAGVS

Take `N#Cc1ccnc(-c2nc(N)nc3c2cnn3Cc2ccc(N)c(C(F)(F)F)c2)c1` [11v, 2-[6-Amino-1-[[4-amino-3-(trifluoromethyl)phenyl]methyl]pyrazolo[3,4-d]pyrimidin-4-yl]pyridine-4-carbonitrile]: the Ki in series [1] was found to be 10.2 nM; in series [2], 250 nM. In addition, the “solubility (in words)” value in series [3] is listed as “greatly reduced solubility”.

`N#Cc1cccc(-c2nc(N)nc3c2cnn3Cc2ccc(N)c(C(F)(F)F)c2)c1` [11w, 3-(6-Amino-1-(4-amino-3-(trifluoromethyl)benzyl)-1H-pyrazolo[3,4-d]pyrimidin-4-yl)benzonitrile]: the values for the Ki in series [1] and in series [2] were 1.94 nM and 49 nM, respectively. Further, the “solubility (in words)” value in series [3] is reported as “greatly reduced solubility”.

In the case of `N#Cc1cccc(-c2nc(N)nc3c2cnn3Cc2ccc(N)c(C(F)(F)F)c2)c1F` [11x, 3-(6-Amino-1-(4-amino-3-(trifluoromethyl)benzyl)-1H-pyrazolo[3,4-d]pyrimidin-4-yl)-2-fluorobenzonitrile], the Ki amounted to 2.71 nM in series [1] and 33 nM in series [2]. Also, the “solubility (in words)” value in series [3] is reported as “greatly reduced solubility”.

Consider `Cc1ncc2n1-c1ccc(Cl)cc1C(c1ccccc1F)=NC2` [Midazolam, reference compound], for which the half-life at 0.2 μM in series [4] (beagle, dog, hepatocytes) is 32.8 min; in series [5] (monkey, hepatocytes), 36 min; in series [6] (CD-1, mouse, hepatocytes) it was 49.9 min; in series [7] (human, hepatocytes), 68.3 min; in series [8] (Sprague Dawley, rat, hepatocytes), 21.9 min. The “Intrinsic Clearance” value was 0.0211 mL/min/10^6 Cells in series [4] (dog hepatocytes, midazolam 0.2 μM); 0.0192 mL/min/10^6 Cells in series [5] (monkey hepatocytes, midazolam 0.2 μM); 0.0139 mL/min/10^6 Cells in series [6] (mouse hepatocytes, midazolam 0.2 μM); 0.0101 mL/min/10^6 Cells in series [7] (human hepatocytes, midazolam 0.2 μM); 0.0317 mL/min/10^6 Cells in series [8] (rat hepatocytes, midazolam 0.2 μM).
